# Source: PMC6825211 (Nature Communications, 2019)
# Values joined by “and” are separate entries in the source; they are usually repeats but may differ in a detail not shown here. Equal entries are not always repeated.
# What was measured:
# MEK1 = MEK1 (Homo sapiens, UniProt Q02750); test: Nanosyn kinase profiling, mobility shift assay; type: biochemical
# SRC = SRC (Homo sapiens, UniProt P12931); test: Nanosyn kinase profiling, mobility shift assay; conditions: read-out: % inhibition by neratinib
# Chain of SRC (P12931 whole entry, species assumed): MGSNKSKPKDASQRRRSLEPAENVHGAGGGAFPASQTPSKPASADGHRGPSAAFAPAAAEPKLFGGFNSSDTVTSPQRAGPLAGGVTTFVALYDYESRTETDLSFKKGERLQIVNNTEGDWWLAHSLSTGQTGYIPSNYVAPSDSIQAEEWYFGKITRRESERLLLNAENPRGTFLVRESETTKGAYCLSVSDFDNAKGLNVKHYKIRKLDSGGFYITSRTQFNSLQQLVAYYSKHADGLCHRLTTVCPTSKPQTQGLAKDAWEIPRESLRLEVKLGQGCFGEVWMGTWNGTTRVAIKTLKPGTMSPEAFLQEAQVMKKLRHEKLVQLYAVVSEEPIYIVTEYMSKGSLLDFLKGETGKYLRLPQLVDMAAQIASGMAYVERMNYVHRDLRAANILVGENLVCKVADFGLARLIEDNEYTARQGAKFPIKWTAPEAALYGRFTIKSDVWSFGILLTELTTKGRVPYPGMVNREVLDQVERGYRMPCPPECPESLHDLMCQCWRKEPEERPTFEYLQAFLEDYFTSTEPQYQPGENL
# [1] = system: obese diabetic Lepr db/db mice; test: db/db model: β-cell proliferation (pHH3); type: in vivo, mouse; conditions: dbdb mice
# MST1 = target: T1, MST1 (Homo sapiens, UniProt Q13043); test: LanthaScreen Eu kinase binding assay (HTS and dose response); design: purchased ThermoFisher; conditions: three experiments
# T1 sequence (Q13043 1-487): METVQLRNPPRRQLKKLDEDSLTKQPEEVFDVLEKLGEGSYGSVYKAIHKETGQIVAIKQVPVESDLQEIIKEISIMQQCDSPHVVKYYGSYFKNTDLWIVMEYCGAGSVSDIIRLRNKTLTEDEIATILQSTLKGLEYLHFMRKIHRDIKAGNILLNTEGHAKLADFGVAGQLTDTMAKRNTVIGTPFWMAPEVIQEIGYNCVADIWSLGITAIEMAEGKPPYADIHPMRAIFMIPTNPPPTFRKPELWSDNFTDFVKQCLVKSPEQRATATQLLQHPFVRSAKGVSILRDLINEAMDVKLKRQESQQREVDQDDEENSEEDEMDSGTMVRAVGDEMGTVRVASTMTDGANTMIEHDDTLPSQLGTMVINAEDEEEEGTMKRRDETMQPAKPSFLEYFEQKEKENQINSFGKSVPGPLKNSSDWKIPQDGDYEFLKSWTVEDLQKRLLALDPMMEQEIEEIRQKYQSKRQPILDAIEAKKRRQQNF
# Description: A total of 39 hits were selected for 9-point dose response confirmation in triplicate, starting at 1 μM followed by 1:5 serial dilution.
# Compounds in 1000× DMSO stock solution were dispensed by using Echo555 liquid dispensing system (Labcyte, CA) to 1536-well microplate (Corning, NY). Kinase buffer A (ThermoFisher, MA) was prepared and added to each well. […] Each reagent was added to the microplate in equal volume.
# Chain of MEK1 (Q02750 whole entry, species assumed): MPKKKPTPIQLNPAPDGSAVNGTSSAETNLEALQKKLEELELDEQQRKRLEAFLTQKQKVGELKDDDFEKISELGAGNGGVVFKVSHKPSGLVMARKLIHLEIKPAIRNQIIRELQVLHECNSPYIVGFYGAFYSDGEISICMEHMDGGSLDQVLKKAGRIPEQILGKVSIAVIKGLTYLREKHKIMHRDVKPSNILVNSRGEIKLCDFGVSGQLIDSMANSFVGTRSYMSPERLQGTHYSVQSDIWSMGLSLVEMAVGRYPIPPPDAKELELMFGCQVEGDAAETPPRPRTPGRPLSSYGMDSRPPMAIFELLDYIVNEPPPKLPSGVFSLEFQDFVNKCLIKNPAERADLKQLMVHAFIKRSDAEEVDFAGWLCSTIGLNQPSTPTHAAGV
structure (smiles),measurement,setting,value
CCOc1cc2ncc(C#N)c(Nc3ccc(OCc4ccccn4)c(Cl)c3)c2cc1NC(=O)/C=C/CN(C)C [neratinib],IC50,MEK1; 12 points dose response,1.49 µM
same,inhibition at 10 µM,MEK1; read-out: % inhibition by neratinib,73%
same,inhibition at 10 µM,SRC,73%
same,pHH3 %/ mouse,[1]; Mean,0.4112%
same,pHH3 %/ mouse,[1]; individual mice,0.7567% and 0.6289% and 0.2824% and 0.1109% and 0.2748% and 0.4135%
same,MST1 (% activity),MST1; neratinib 0.02 nM,87.31% and 98.20% and 108.86%
same,MST1 (% activity),MST1; neratinib 0.06 nM,99.80% and 103.92%
same,activity at 60 pM,MST1; neratinib 0.06 nM,114%
same,MST1 (% activity),MST1; neratinib 0.17 nM,91.02% and 100.09%
same,activity at 0.00017 µM,MST1; neratinib 0.17 nM,97.1%
same,MST1 (% activity),MST1; neratinib 0.51 nM,98.60% and 98.84%
same,activity at 0.00051 µM,MST1; neratinib 0.51 nM,101%
same,MST1 (% activity),MST1; neratinib 1.52 nM,88.42% and 89.31%
same,activity at 0.00152 µM,MST1; neratinib 1.52 nM,103%
same,MST1 (% activity),MST1; neratinib 4.57 nM,67.07% and 80.02%
same,activity at 0.00457 µM,MST1; neratinib 4.57 nM,82.2%
same,MST1 (% activity),MST1; neratinib 13.72 nM,46.34% and 78.85% and 63.80%
same,MST1 (% activity),MST1; neratinib 41.15 nM,53.70% and 49.03%
same,activity at 0.04115 µM,MST1; neratinib 41.15 nM,48.9%
same,MST1 (% activity),MST1; neratinib 123.46 nM,24.15% and 30.50%
same,activity at 0.12346 µM,MST1; neratinib 123.46 nM,30.6%
same,MST1 (% activity),MST1; neratinib 370.37 nM,7.98% and 6.57%
same,activity at 0.37037 µM,MST1; neratinib 370.37 nM,11.7%
same,MST1 (% activity),MST1; neratinib 1111.11 nM,8.75% and 1.83%
same,MST1 (% activity),MST1; neratinib 3333.33 nM,4.17% and -2.20% and -1.83%
